Experimental data from US20230346831A1, “METHODS FOR TREATING […] USING LOW DOSE CARBON MONOXIDE” (priority 2020, published 2023).
Entries after “also recorded” stand apart in the source; their conditions may differ.

Key:
Assay type in all cases: cell-based, human
[1] = test system: various cancer cell lines; assay: proliferation assay, statements across cancer types
Experimental: (§1) Proliferation of different cancer cells under control air or 250 ppm CO treatment with or without supplement of 30 µM hemin was determined. Indicated cell lines cell lines were seeded in the 24-well plate in normal growth media. 16 hours later, cells were fixed, stained with crystal violet, and lysed by methanol. OD595 were measured from triplicates of each cell type. Error bars represent SEM. *: P < 0.05, two-sided t-test. Scale bar, 100 µm.
(§2) 6.5 mm Transwell with 8.0 µm Pore Polycarbonate Membrane Insert (Corning, NY, Cat. No. 3422) was used for the cell migration assay (FIG. 1J). After 16 hours of incubation, cells migrated to the opposite side of the upper chambers were fixed with 4% paraformaldehyde, stained with 0.2% crystal violet for 30 min and counted in five fields under × 20 magnification. In parallel, cells were seeded on 24-well plates for proliferation assay. […] The optical density was measured at 595 nm (OD595). […]
(§3) To investigate whether 250 ppm CO induces hypoxia, HiF1α protein levels in low-dose CO-treated MCF7/TGL and MDA-MB-231/TGL cells were examined. […] To assess the intracellular heme levels affected by low-dose CO treatment, oxidized heme levels in the form of hemin (Fe^3+ state) were measured because free heme (Fe^2+ state) is readily oxidized and cannot be measured. […]

[2] = test system: intracellular heme/hemin levels; assay: heme colorimetric assay of intracellular heme
Experimental: Cells were grown to 75-80% confluence in 10-cm cell culture plates and collected in 1 ml cold PBS by cell scraper. 10 µl of the cells was transferred to a new tube for protein lysate preparation and protein concentration measurement. The rest of the cells were lysed in Heme extraction buffer (acetone: HCl: water = 25: 1.3: 5) as described by J. Hooda, M. Alam, & L. Zhang, J Vis Exp, e51579 (2015). Heme levels were measured using a heme colorimetric assay kit (BioVision, Milpitas, CA, Cat. No. K672-100) and normalized by the protein concentration of each sample.
To investigate whether 250 ppm CO induces hypoxia, HiF1α protein levels in low-dose CO-treated MCF7/TGL and MDA-MB-231/TGL cells were examined. Compared to the control cells grown in a standard tissue culture incubator, HiF1α protein levels were not changed after 250 ppm CO treatment for 16 hours (FIG. 4A). To identify genes and pathways that were affected by 250 ppm CO, RNA-Seq and gene set enrichment analysis (GESA) of MCF7 and MDA-MB-231 cells were performed after 16 hours in a CO incubator or in a regular cell culture incubator. […] To assess the intracellular heme levels affected by low-dose CO treatment, oxidized heme levels in the form of hemin (Fe^3+ state) were measured because free heme (Fe^2+ state) is readily oxidized and cannot be measured. […]

[3] = test system: MDA-MB-231 cells; assay: proliferation assay (crystal violet, OD595); settings: 16 hours
Experimental: as §1
6.5 mm Transwell with 8.0 µm Pore Polycarbonate Membrane Insert (Corning, NY, Cat. No. 3422) was used for the cell migration assay (FIG. 1J). After 16 hours of incubation, cells migrated to the opposite side of the upper chambers were fixed with 4% paraformaldehyde, stained with 0.2% crystal violet for 30 min and counted in five fields under × 20 magnification. In parallel, cells were seeded on 24-well plates for proliferation assay. Cells for proliferation control were fixed with 4% paraformaldehyde, stained with 0.2% crystal violet for 30 min and lysed with methanol to release the crystal violet as described by M. Feoktistova, P. Geserick, & M. Leverkus, Cold Spring Harb Protoc 2016, pdb prot087379 (2016). The optical density was measured at 595 nm (OD595). To supplement heme/hemin in the transwell migration assay, 30 µM hemin (MedChemExpress, Monmouth Junction, NJ, Cat. No. HY-19424) was added to both the cell suspension in the upper chambers and the bottom wells.
To examine whether CO has an effect on tumor cell migration, in vitro transwell migration assays were performed. […] Cell migration through the transwell membrane along a serum gradient (Table 1) after 16 hours in the presence or absence of 250 ppm CO were measured.
5 × 10^4 MDA-MB-231-TGL cells were seeded in the upper chamber of 8-µm porous polycarbonate membranes with DMEM containing 0% FBS, 0.2 mM L-glutamine and 1% penicillin/streptomycin. […] The optical density was measured at 595 nm (OD595).

[4] = test system: cancer cells across different cancer types; assay: in vitro transwell migration assay, statements across cancer types; settings: 16 hours
Experimental: Migration of different cancer cells under control air or 250 ppm CO treatment with or without supplement of 30 µM hemin was determined using in vitro transwell migration chamber with a serum gradient. Indicated cell lines were seeded into the transwell inserts. 16 hours later, cells on the top of the upper chambers were removed, and cells on the bottom surface of the transwell inserts were fixed, stained with crystal violet, and counted from eight randomly picked fields in three independent experiments. Error bars represent SEM. *: P < 0.05, two-sided t-test. Scale bar, 100 µm. […]
as §2, with “magnification.” for “magnification. In parallel, cells were seeded on 24-well plates for proliferation assay.”
as §3

## [C-]#[O+] [CO, Carbon monoxide]
[1]; 250 ppm CO for 16 hours, vs control air
  cancer cell proliferation across different cancer types: does not affect
[2]; MCF7 and MDA-MB-231 cells, 250 ppm CO
  intracellular heme/hemin levels: significantly reduced
[3]; CO, higher density (6.25 × 10^4 or 12.5 × 10^4 cells per 24-well) compared with lower density (3.125 × 10^4 cells per 24-well)
  inhibitory effect on MDA-MB-231 cell proliferation by seeding density: greater inhibitory effect
[3]; MDA-MB-231 cells, 250 ppm CO, vs control air
  cell proliferation: did not affect
[4]; 250 ppm CO, transwell with serum gradient, vs control air
  cancer cell migration across different cancer types: decreases

## Hemin [reference compound]
[1]; 30 µM hemin in the medium (FIGS. 2C-2E)
  cell proliferation of various cancer cell lines with hemin: slightly increased
[2]; 30 µM hemin in the medium, CO-treated cells
  intracellular heme levels with hemin supplement: increased
[3]; MDA-MB-231/TGL cells, 30 µM hemin, with or without 250 ppm CO
  cancer cell proliferation with hemin supplement: did not alter
[4]; 30 µM hemin + 250 ppm CO, transwell, cell lines not named at the place (FIGS. 1A-1I; 1C-1E)
  cell migration inhibited by CO (rescue by hemin supplement): partially restored; also recorded: rescued
